In patent US20250215051A1, “Transmembrane Allosteric Short Peptides Modulating Human Mu-Opioid Receptor for Analgesic Effects and Covalent Steroid Modifications of Transmembrane Allosteric Peptides for Enhanced Mu-Opioid Receptor Interaction in Chronic Pain Therapies” (Mu42 SPOLKA Z OGRANICZONA ODPOWIEDZIALNOSCIA, priority 2023, published 2025):
No end group written: not given here.

Biological target: T1, mu-opioid receptor (MOR) (Homo sapiens, UniProt P35372)
T1 construct: expressed in transfected cells; host or cells: CHO-K1
Assay: functional cellular cAMP assay on CHO-K1 cell lines expressing MOR, co-administration with orthosteric ligand
Format: cell-based
Details: for Allosteric activity level (%): 0% = reference agonist at EC20, 100% = maximum activity of reference agonist; for EC50: logEC50(M), log of molar EC50, CHO-K1 cells expressing MOR, cAMP
Protocol: The properties and functionality of these peptidosteroids were validated using standard experimental methods. To evaluate their allosteric modulation capabilities, functional cellular assays were conducted on CHO-K1 cell lines expressing MOR. These assays utilized fluorescent techniques to measure intracellular cAMP levels as a marker of receptor activity.
The peptidosteroids were tested in co-administration with orthosteric ligands, such as morphine and DAMGO, to assess their ability to influence receptor signaling.
The table below provides additional data on the binding motifs (Candidates 1 and 2) and the resulting peptidomimetics (Candidate 3), offering a detailed comparison of their activity. The percentage values are normalized such that 0% corresponds to the activity of the reference agonist at EC20, while 100% represents the maximum activity of the reference agonist.

T1 sequence (P35372 whole entry): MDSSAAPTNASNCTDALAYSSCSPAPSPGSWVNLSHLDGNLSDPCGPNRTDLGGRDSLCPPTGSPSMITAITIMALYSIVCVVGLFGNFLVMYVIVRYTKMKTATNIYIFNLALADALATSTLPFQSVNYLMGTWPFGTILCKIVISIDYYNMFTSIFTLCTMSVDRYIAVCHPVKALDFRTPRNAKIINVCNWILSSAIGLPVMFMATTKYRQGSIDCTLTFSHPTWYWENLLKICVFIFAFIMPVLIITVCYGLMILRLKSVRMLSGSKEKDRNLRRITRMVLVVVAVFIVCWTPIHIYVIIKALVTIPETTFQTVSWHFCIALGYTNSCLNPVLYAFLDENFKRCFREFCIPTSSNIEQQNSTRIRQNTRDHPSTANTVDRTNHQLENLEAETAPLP

In the case of YPWFYL [sequence-4, YPWFYL], the “Allosteric activity level (%)” value (agonist present DAMGO) was 24.64% and the EC50 (agonist present DAMGO (EC20)) was 1.35e-06 M.

In the case of “VCAVGLWGNWLVM [sequence-1, VCAVGLWGNWLVM]”, the “Allosteric activity level (%)” value (agonist present DAMGO) was 23.64%, the “Allosteric activity level (%)” value (agonist present morphine) was 21.67% and the EC50 (agonist present DAMGO (EC20)) was 4.57e-06 M. For the same substance, the EC50 (agonist present morphine) was 1e-06 M.
